The values below come from article PMC12064818, “A general assay platform to study protein pharmacology using ligand-dependent structural dynamics” (Nature Communications, 2025).

Some results are limits rather than exact numbers.

The target in the assay is T1, FLuc-C-HiBiT (Photinus pyralis, UniProt P08659).
T1 construct: firefly luciferase with C-terminal HiBiT tag, E. coli expressed
As to the kind of experiment: biochemical. The note with it: enzyme activity, 10 uM ATP; read-out: IC50 or SDR50 (mM) / FLuc E.

T1 sequence (P08659 whole entry, looked up): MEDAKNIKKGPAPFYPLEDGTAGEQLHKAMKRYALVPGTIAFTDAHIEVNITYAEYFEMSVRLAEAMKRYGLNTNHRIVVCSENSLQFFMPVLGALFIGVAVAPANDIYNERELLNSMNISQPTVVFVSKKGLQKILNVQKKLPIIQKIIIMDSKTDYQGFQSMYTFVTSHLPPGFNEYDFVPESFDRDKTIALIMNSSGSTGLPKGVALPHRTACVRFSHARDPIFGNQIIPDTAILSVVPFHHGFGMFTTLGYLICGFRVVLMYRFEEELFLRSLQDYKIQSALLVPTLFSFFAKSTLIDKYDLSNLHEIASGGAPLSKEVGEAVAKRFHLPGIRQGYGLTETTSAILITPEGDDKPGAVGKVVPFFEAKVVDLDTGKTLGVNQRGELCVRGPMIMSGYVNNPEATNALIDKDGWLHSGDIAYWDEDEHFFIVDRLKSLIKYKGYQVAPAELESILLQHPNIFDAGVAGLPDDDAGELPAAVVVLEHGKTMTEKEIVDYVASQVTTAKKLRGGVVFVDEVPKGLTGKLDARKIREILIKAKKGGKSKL

In the case of `COc1cccc(C(=O)NCCn2ccn3nc(-c4ccc(C)c(C)c4)cc3c2=O)c1OC` [NCGC00457018-01], the IC50 came out at 0.00785 mM.

Take `Cc1ccc(-c2cc3c(=O)n(CCNC(=O)c4ccoc4)ccn3n2)cc1C` [NCGC00457019-01]: the IC50 was determined as 0.00989 mM.

Take `Cc1ccc(-c2cc3c(=O)n(CCNC(=O)c4cccc5[nH]ccc45)ccn3n2)cc1C` [NCGC00457046-01]: the IC50 came to 0.00785 mM.

On to `COc1cccc(-c2cc3c(=O)n(CCNC(=O)C4CCN(C(C)=O)CC4)ccn3n2)c1` [NCGC00457070-01], for which the IC50 turned out to be 0.0124 mM.

In the case of `COc1cccc(-c2cc3c(=O)n(CCNC(=O)c4ccccc4Cl)ccn3n2)c1` [NCGC00457089-01], the IC50 stood at 0.00881 mM.

Take `Cc1noc(-c2cccn3c(CNC(=O)c4ccc(C(C)(C)C)cc4)nnc23)n1` [NCGC00457512-01]: the IC50 was determined as 0.00989 mM.

Regarding `CCc1nnc(CC2CCN(C(=O)Nc3ccc4c(c3)OCCO4)CC2)[nH]1` [NCGC00458299-01], the IC50 is 0.0111 mM.

Turning to `CCCn1c(C)cnc1CC1CCN(C(=O)C2(c3ccc(OC)cc3)CC2)C1` (stereo not drawn) [NCGC00464172-01], the IC50 is > 0.03 mM.

In the case of `O=C(Nc1ccc2c(c1)OCCO2)N1CC(c2nc(CCOCC3CC3)no2)C1` [NCGC00464361-01], the IC50 is 0.00989 mM.

Turning to `Cc1cccc(OCCc2noc(C3CN(C(=O)Nc4ccc5c(c4)OCCO5)C3)n2)c1` [NCGC00464383-01], the IC50 worked out at 0.007 mM.

With `O=C(O)[C@@H]1CN(Cc2ccccc2)C[C@@H]1C(=O)N1CCc2ccccc21` [NCGC00464394-01], the IC50 is > 0.03 mM.

`O=C1NCCCCCCN(C(=O)Nc2ccc3c(c2)OCCO3)[C@H]2CCC[C@@H]12` [NCGC00465105-01]: the IC50 is 0.00351 mM.

Turning to `O=C1CC(c2ccccc2)N(C(=O)CNC(=O)Nc2ccc3c(c2)OCCO3)CCCCCN1` (stereo not drawn) [NCGC00465553-01], the IC50 turned out to be 0.0176 mM.

For the compound `COc1ccc(C(=O)N2CCCC(c3nc(-c4ccccc4)no3)CCNC(=O)CC2)c(OC)n1` (stereo not drawn) [NCGC00465834-01], the IC50 came to 0.0111 mM.

Turning to `O=C1NCCCCCCN(C(=O)Nc2ccc3c(c2)OCCO3)[C@H]2CCCC[C@@H]12` [NCGC00466580-01], the IC50 came out at 0.00881 mM.

For `CN1CCCCCCN(C(=O)Nc2ccc3c(c2)OCCO3)CCC1=O` [NCGC00466735-01], the IC50 came out at 0.00989 mM.

For the compound `O=C1NCCCCCCN(Cc2ccncc2)[C@@H]2CN(C(=O)Nc3ccc4c(c3)OCCO4)CC[C@H]12` [NCGC00467232-01], the IC50 was determined as 0.0111 mM.

For `Cc1cnc(CCNC(=O)Nc2ccc3c(c2)OCCO3)n1C1CC1` [NCGC00469576-01], the IC50 was 0.0111 mM.

Regarding `Cc1cnc(CC2CCCN(C(=O)CCc3c[nH]c4ccccc34)C2)n1C(C)C` (stereo not drawn) [NCGC00469687-01], the IC50 was > 0.03 mM.

Consider `Cc1cnc(CCNC(=O)Nc2ccc3c(c2)OCCO3)n1Cc1ccc(F)cc1` [NCGC00469838-01], for which the IC50 was 0.0124 mM.

Take `Cn1c(=O)c2ccnn2c2ccc(C(=O)Nc3ccc4c(c3)OCCO4)cc21` [NCGC00470050-01]: the IC50 stood at 0.00989 mM.

With `CCNc1cc(N2CCC(CCC(=O)Nc3ccc4c(c3)OCCO4)CC2)ncn1` [NCGC00470231-01], the IC50 is 0.0124 mM.

As to `CCCNc1cc(N2CCC(CCC(=O)Nc3ccc4c(c3)OCCO4)CC2)ncn1` [NCGC00470245-01], the IC50 was determined as 0.00989 mM.

With `Cc1ccc(NC(=O)Nc2cccn3nc(C)nc23)cc1` [NCGC00470444-01], the IC50 stood at 0.0111 mM.

`CC(C)n1cc2cc(C(=O)Nc3ccc4c(c3)OCCO4)sc2c1` [NCGC00470606-01]: the IC50 stood at 0.00989 mM.

Take `CN1CCCN(C(=O)Nc2ccc3c(c2)OCCO3)c2ccccc21` [NCGC00470832-01]: the IC50 was 0.00989 mM.

Regarding `CCOCC(=O)N1c2ccccc2CC1c1noc(C(C)C)n1` (stereo not drawn) [NCGC00471496-01], the IC50 worked out at 0.0124 mM.

`CC(C)c1nc(C2Cc3ccccc3N2C(=O)NC2CCCC2)no1` (stereo not drawn) [NCGC00471499-01]: the IC50 came to 0.014 mM.

As to `O=C(C1CCC1)N1c2ccccc2CC1c1noc(C2CCOCC2)n1` (stereo not drawn) [NCGC00471502-01], the IC50 was 0.00989 mM.

`O=C(N1c2ccccc2CC1c1noc(C2CCOCC2)n1)C1(c2ccccc2)CC1` (stereo not drawn) [NCGC00471505-01]: the IC50 was 0.0124 mM.
